≈ marks a conversion by molar mass, not a printed value. Where “and” joins values, the source holds several entries; their conditions need not be identical. Equal entries are not always repeated. Entries after “also recorded” stand apart in the source; their conditions may differ. Where two headings read alike, the source gives them in different places.
Tests used:
[1] = test system: S. aureus (SA) ATCC 25913; test: Agar well diffusion, S. aureus; assay type: cell-based, Staphylococcus aureus; settings: average of triplicate
Experimental: (§1) The five newly synthesized compounds were first qualitatively evaluated for antibacterial and antifungal activities using Muller-Hinton agar medium (MHA) through the agar well diffusion technique as previously described (Balouiri et al. [2016]). The bacterial test was performed against the following standard strains: S. aureus (SA) ATCC 25913, E. coli (EC) ATCC 25922, P. aeruginosa (PA) ATCC 27853, K. pneumoniae (KP) ATCC 49619. The antifungal activity was evaluated against C. albicans (CA) ATCC 14053 (CLSI [2021]). A bacterial culture and preparation of wells on a seeded MHA plate was performed as previously described (Isleem et al. [2025]). The experiment was done in triplicate according to CLSI guidelines (CLSI [2021]). Secondly, the compounds that gave positive inhibition zones were selected for MIC determination using broth microdilution assay according to CLSI guidelines (CLSI [2021]). […]

E. coli (EC) ATCC 25922 [2] = test: Agar well diffusion, E. coli; assay type: cell-based, Escherichia coli; settings: average of triplicate
Experimental: as §1

[3] = test system: P. aeruginosa (PA) ATCC 27853; test: Agar well diffusion, P. aeruginosa; assay type: cell-based, Pseudomonas aeruginosa; settings: average of triplicate
Experimental: as §1

[4] = test system: HeLa (human cervical cancer); test: MTT cytotoxicity assay, HeLa; assay type: cell-based; settings: 96 h continuous exposure, read-out: In vitro antitumor activities (IC50) HeLa (Cervical)
Source text: (§2) Four immortalized human cancer cell lines served as a panel for testing the compounds' cytotoxicity. The STAT3-null A4 cell line (with homozygously deleted STAT3) is a sub-line of the DLD1 colorectal carcinoma cell line and was a gift from Professor David Thurston, Emeritus Professor of Drug Discovery, King’s College London. The American Type Culture Collection and LGC provided the cell lines for HeLa (human cervical cancer), MIA-PaCa-2 (human pancreatic adenocarcinoma), MDA MB231 (triple negative human breast cancer), and NCI H1975 (human non-small cell lung cancer). Every cell line was kept in monolayer culture in 75 cm^2 flasks (TPP, Switzerland) at 37 °C in a humidified environment containing 5% CO2. The HeLa line was kept in Dulbecco's Modified Eagles Media (DMEM; Invitrogen), which was enhanced with L-glutamine (2 mM; Invitrogen), non-essential amino acids (1 x; Invitrogen), 10% v/v fetal bovine serum, and Penicillin–Streptomycin (1% v/v; Invitrogen).
(§3) Dulbecco's MEM was utilized for MIA PaCa2, and it was enhanced with fetal calf serum (10%, Biosera UK) and L-glutamine (2 mM; Invitrogen). The following materials were employed for sub-culturing: L-glutamine (2 mM; Invitrogen), fetal bovine serum (10%, Biosera UK), high glucose DMEM (4.5 g/l; Invitrogen), Penicillin–Streptomycin (1% v/v, Invitrogen), and non-essential amino acids (1x; Invitrogen). Penicillin–Streptomycin (1% v/v, Invitrogen) and fetal bovine serum (10% v/v; Invitrogen) were added to Roswell Park Memorial Institute Medium 1640 (RPMI 1640, Invitrogen) to sustain the NCI H1975 cell lines. Cells were passaged by rinsing them in PBS (GIBCO 14040, Invitrogen, UK), culturing them with trypsin (GIBCO 25300, Invitrogen, UK), and then reseeding them into new media. Cells were counted for seeding on a non-adherent suspension of cells that were rinsed in PBS, trypsinized, centrifuged at 8 °C for 5 min at 8000 rpm, and then re-suspended in new media using a Neubauer hemocytometer (Assistant, Germany) by microscopy (Nikon, USA).
(§4) Using the proper medium, the cells were cultured under standard cell culture conditions at 37 °C in a humidified atmosphere with 5% CO2. Depending on the cell line, 5,000–20,000 cells were added per well after the cell count was adjusted to 10^5 cells/mL. After a 24-h incubation period, 1 μL of the suitable inhibitor doses were applied in triplicate to the wells (Freimoser et al. [1999]). The MTT colorimetric test (3-(4,5-Dimethylthiazol-2-yl)-2,5-diphenyltetrazolium bromide) (Lancaster Synthesis Ltd, UK) was used to assess the cytotoxicity of each chemical after 96 h of continuous exposure (Freimoser et al. [1999]). Using an Envision Plate Reader from PerkinElmer, USA, spectrophotometry was used to measure absorbance at λ = 570 nm. Using the Prism Graphpad Prism® program, a dose–response analysis was used to get the IC50 values. MDA MB231; HeLa; MIA Cell lysis buffer was added to PaCa2 cells after they had been exposed to different doses of chemical 3e. The cells were then collected. Following the electrophoresis of total cell lysates on precast TGX gels, β-actin and CAXII antibodies were immunoblotted (Ghomashi et al. [2023]). Doxorubicin was used as a positive control (Ghomashi et al. [2023]).

[5] = test system: MDA MB231 (triple negative human breast cancer); test: MTT cytotoxicity assay, MDA MB231; assay type: cell-based; settings: MDA-MB-231, 96 h continuous exposure, read-out: In vitro antitumor activities (IC50) MDA MB231 (Breast)
Source text: as §2, §3, §4

[6] = test system: MIA-PaCa-2 (human pancreatic adenocarcinoma); test: MTT cytotoxicity assay, MIA PaCa2; assay type: cell-based; settings: 96 h continuous exposure, read-out: In vitro antitumor activities (IC50) MIA PaCa2 (Pancreatic)
Source text: as §2, §3, §4

[7] = test system: NCI H1975 (human non-small cell lung cancer); test: MTT cytotoxicity assay, NCI H1975; assay type: cell-based; settings: 96 h continuous exposure, read-out: In vitro antitumor activities (IC50) NCI H1975 (non-small cell Lung)
Source text: as §2, §3, §4

[8] = test system: STAT3-null A4 cell line (sub-line of DLD1 colorectal carcinoma); test: MTT cytotoxicity assay, A4 control cell line; assay type: cell-based; settings: Homo sapiens, DLD-1, 96 h continuous exposure, read-out: In vitro antitumor activities (IC50) A4 Cell line (Control cell line)
Source text: as §2, §3, §4

[9] = target: T1, carbonic anhydrase XII (CAXII) (Bos taurus, UniProt P00921); test: Carbonic anhydrase (CAXII) inhibition, 4-nitrophenyl acetate, 96-well plate; assay type: biochemical, bovine
T1 construct: purified bovine erythrocyte CA-II; from tissue; host or cells: bovine erythrocytes
T1 sequence (P00921 2-260): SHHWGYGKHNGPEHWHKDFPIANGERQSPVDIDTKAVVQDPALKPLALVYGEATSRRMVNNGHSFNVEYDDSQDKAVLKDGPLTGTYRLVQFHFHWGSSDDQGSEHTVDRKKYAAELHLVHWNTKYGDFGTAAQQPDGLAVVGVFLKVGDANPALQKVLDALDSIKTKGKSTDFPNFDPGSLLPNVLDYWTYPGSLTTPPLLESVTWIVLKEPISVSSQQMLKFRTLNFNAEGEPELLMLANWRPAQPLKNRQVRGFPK

[10] = test system: C. albicans (CA) ATCC 14053; test: Agar well diffusion, C. albicans; assay type: cell-based, Candida albicans; settings: average of triplicate
Experimental: as §1

[11] = test system: S. aureus (SA) ATCC 25913; test: Broth microdilution MIC, S. aureus; assay type: cell-based; settings: Staphylococcus aureus, ATCC25913, CLSI
E. coli (EC) ATCC 25922 [12] = test: Broth microdilution MIC, E. coli; assay type: cell-based; settings: Escherichia coli, ATCC25922, CLSI
[13] = test system: C. albicans (CA) ATCC 14053; test: Broth microdilution MIC, C. albicans; assay type: cell-based; settings: Candida albicans, ATCC14053, CLSI
Experimental: as §1

[14] = test system: P. aeruginosa (PA) ATCC 27853; test: Broth microdilution MIC, P. aeruginosa; assay type: cell-based; settings: Pseudomonas aeruginosa, ATCC27853, CLSI
[15] = test system: four tested tumor cell lines; test: MTT cytotoxicity assay, panel of the four tumor cell lines; assay type: cell-based, human; settings: for IC50: Homo sapiens, range across HeLa, MDA MB231, MIA PaCa2, NCI H1975, read-out: IC50 / concentration stopping growth, range over the four tumor cell lines
Source text: as §2, §3
Using the proper medium, the cells were cultured under standard cell culture conditions at 37 °C in a humidified atmosphere with 5% CO2. Depending on the cell line, 5,000–20,000 cells were added per well after the cell count was adjusted to 10^5 cells/mL. After a 24-h incubation period, 1 μL of the suitable inhibitor doses were applied in triplicate to the wells (Freimoser et al. [1999]). The MTT colorimetric test (3-(4,5-Dimethylthiazol-2-yl)-2,5-diphenyltetrazolium bromide) (Lancaster Synthesis Ltd, UK) was used to assess the cytotoxicity of each chemical after 96 h of continuous exposure (Freimoser et al. [1999]). Using an Envision Plate Reader from PerkinElmer, USA, spectrophotometry was used to measure absorbance at λ = 570 nm. […]

[16] = read-out: CAXII inhibitory activity (IC50)

Row | SMILES | Inhibition Zone SA ATCC 25913 [1] | Inhibition Zone EC ATCC 25922 (E. coli (EC) ATCC 25922 [2]) | Inhibition Zone PA ATCC 27853 [3] | IC50 [4] | IC50 [5] | IC50 [6] | IC50 [7] | IC50 [8] | IC50 [9, 16] | Inhibition Zone CA ATCC 14053 [10] | MIC [11] | MIC (E. coli (EC) ATCC 25922 [12]) | MIC [13] | MIC [14] | IC50 [15] | IC50 ([9]; text of b65, unit printed nM, read-out: CAXII inhibition (converted)) | Anticancer activity against the four tested tumor cell lines (in words) [15]
1 | O=C(O)c1cn(C2CC2)c2cc(N3CCNCC3)c(F)cc2c1=O [Ciprofloxacin, reference compound] | 21 mm | 25 mm | 25 mm |  |  |  |  |  |  |  |  |  |  |  |  |  | 
2 | NS(=O)(=O)c1ccc(Nc2ncnc3ccc(I)cc23)cc1 [Compound 3a, 6-Iodo-4-(4-aminosulphonylphenyl-amino) quinazoline] | 14 mm | 10 mm | 0 mm | 10.5 ± 1.6 µM | 12 ± 1.25 µM | 14 ± 1.6 µM | 13.2 ± 1.5 µM | > 50 µM | 9510 nM | 10 mm | 8 µg/mL (≈ 18.8 µM) | 8 µg/mL (≈ 18.8 µM) | 16 µg/mL (≈ 37.5 µM) |  |  |  | 
3 | COc1ccc(-c2nc(Nc3ccc(S(N)(=O)=O)cc3)c3cc(I)ccc3n2)cc1 [Compound 3b, 6-Iodo-4-(4-aminosulphonylphenyl-amino)-2-(4-methoxyphenyl)-quinazoline] | 18 mm | 12 mm | 10 mm | 6.1 ± 0.12 µM | 7.3 ± 0.8 µM | 7.3 ± 0.9 µM | 9.1 ± 1.8 µM | > 50 µM | 3690 nM and 3750 nM | 10 mm | 2 µg/mL (≈ 3.76 µM) | 8 µg/mL (≈ 15 µM) | 16 µg/mL (≈ 30.1 µM) | 32 µg/mL (≈ 60.1 µM) | 6 to 9 µM |  | 
4 | O=S(=O)(Nc1nccs1)c1ccc(Nc2nc(-c3ccccc3)nc3ccc(I)cc23)cc1 [Compound 3c, 6-Iodo-2-phenyl-4-(4-(thiazol-2-yl)aminosulphonylphenyl-amino) quinazoline] | 22 mm | 15 mm | 12 mm | 4 ± 0.66 µM | 6.4 ± 0.9 µM | 5.5 ± 0.8 µM | 8 ± 0.5 µM | > 50 µM | 3690 nM | 16 mm | 1 µg/mL (≈ 1.71 µM) | 4 µg/mL (≈ 6.83 µM) | 4 µg/mL (≈ 6.83 µM) | 16 µg/mL (≈ 27.3 µM) | 4 to 8 µM |  | 
5 | COc1ccc(-c2nc(Nc3ccc(S(=O)(=O)Nc4nccs4)cc3)c3cc(I)ccc3n2)cc1 [Compound 3d, 6-Iodo-2-(4-methoxyphenyl)-4-(4-(thiazol-2-yl)aminosulphonylphenyl-amino)-quinazoline] | 16 mm | 10 mm | 12 mm | 8.2 ± 2.1 µM | 6.4 ± 1.76 µM | 6.1 ± 1.3 µM | 12.3 ± 0.9 µM | > 50 µM | 8190 nM | 12 mm | 4 µg/mL (≈ 6.5 µM) | 32 µg/mL (≈ 52 µM) | 8 µg/mL (≈ 13 µM) | 32 µg/mL (≈ 52 µM) |  | 8910 nM | 
6 | COc1ccc(-c2nc(Nc3ccc(S(=O)(=O)Nc4nccs4)cc3)c3cc(I)ccc3n2)cc1OC [Compound 3e, 6-Iodo-2-(3,4-dimethoxyphenyl)-4-(4-(thiazol-2-yl)aminosulphonylphenyl-amino)-quinazoline] | 14 mm | 10 mm | 10 mm | > 50 µM | > 50 µM | > 50 µM | > 50 µM | > 50 µM | > 50000 nM | 12 mm | 16 µg/mL (≈ 24.8 µM) | 32 µg/mL (≈ 49.6 µM) | 16 µg/mL (≈ 24.8 µM) | 32 µg/mL (≈ 49.6 µM) |  |  | devoid of anticancer activities; also recorded: weak activity
7 | COc1cccc2c1C(=O)c1c(O)c3c(c(O)c1C2=O)C[C@@](O)(C(=O)CO)C[C@@H]3O[C@H]1C[C@H](N)[C@H](O)[C@H](C)O1 [Doxorubicin, reference compound] |  |  |  | 3.25 ± 0.5 µM | 2.7 ± 0.6 µM | 2.3 ± 0.6 µM | 2.8 ± 0.5 µM |  |  |  |  |  |  |  | 2.3 to 3.25 µM |  | 
8 | OC(Cn1cncn1)(Cn1cncn1)c1ccc(F)cc1F [Fluconazole, reference compound] |  |  |  |  |  |  |  |  |  | 20 mm |  |  | 1 µg/mL (≈ 3.27 µM) |  |  |  | 

Reference: PMC12177125, “Anticancer, antimicrobial and molecular docking analysis of newly synthesized iodoquinazoline derivatives” (AMB Express, 2025)
